Test results: patent publication US20240300957A1, “TETRAZOLE-SUBSTITUTED ETHYL-SULFONE / SULFOXIMINE-PYRIDINE DERIVATIVES” (Boehringer Ingelheim Vetmedica GmbH, priority 2023, published 2024)

What was measured:
adult C. felis fleas = assay: Ingestion activity against adult Ctenocephalides felis (artificial membrane feeding, bovine blood); assay type: in vivo; conditions: bovine blood via artificial membrane, motility 48 h post treatment, read-out: EC50 (ingestion activity, % motility reduction)
Method: Example 6: Screening Method to Test Ingestion Activity of Compounds of Formula (I), (Ia) or (Ib) Against Adult Ctenocephalides felis Compounds of formula (I), (Ia) and (Ib) dissolved in 100% DMSO are added to bovine blood and offered via an artificial membrane feeding system to adult C. felis fleas. The motility of fleas is then visually inspected 48 h post treatment. Efficacy is expressed in % motility reduction compared to controls containing blood treated with DMSO only. A dose response series is implemented to determine EC50 values.

[1] = test system: 3rd-instar nymphs of Laodelphax striatellus; assay: Insecticidal test on Laodelphax striatellus (rice seedling dip); assay type: in vivo; conditions: 192 h, 8 days after inoculation, 25° C., read-out: activity level (corrected mortality rate)
Plutella xylostella = assay: Insecticidal test on Plutella xylostella (Chinese cabbage seedling dip); assay type: in vivo; conditions: 144 h, 6 days after dip treatment, 25° C., read-out: activity level (corrected mortality rate)
Method: Example 14: Insecticidal Test on Plutella xylostella
The compounds of formula (I), (Ia) and (Ib) of the present invention or salts thereof are separately dispersed in water and diluted to 50 ppm. Ten adults of Plutella xylostella are released onto Chinese cabbage seedlings and allowed to lay eggs thereon. 2 days after the release of the adults, the seedling is dipped in the dispersion for about 30 seconds. After air dried, the seedling is kept in a room at 25° C. 6 days after the dip treatment, the numbers of the dead and alive insects are counted. The corrected mortality rate is calculated according to the following formula and the insecticidal activity was evaluated according to the following criteria.
[formula] • A: the corrected mortality rate is 100% • B: the corrected mortality rate is 90 to 99% • C: the corrected mortality rate is 80 to 89% • D: the corrected mortality rate is 50 to 79%

[2] = test system: adult Ctenocephalides felis fleas; assay: Contact activity against adult Ctenocephalides felis (coated pipe cleaner in vial); assay type: in vivo; conditions: adult C. felis, mortality at 72 hours post-treatment, 22° C., 80% relative humidity, read-out: EC50 (contact activity, percentage mortality)
Method: Example 4: Screening Method to Test Contact Activity of Compounds of Formula (I), (Ia) or (Ib) Against Adult Ctenocephalides felis
Compounds of formula (I), (Ia) and (Ib) dissolved in 100% DMSO are diluted in acetone to a desired concentration. The resulting formulation is used to coat the fibers of a 0.5-inch-long piece of pipe cleaner placed in a glass scintillation vial. The vial is capped with a rubber gasket and filter paper insert. After the acetone has evaporated, ten adult Ctenocephalides felis fleas are added to each vial. The vials are then incubated at 22° C., 80% relative humidity, and 12 hours of light/12 hours of dark until a visual evaluation for mortality is performed at 72 hours post-treatment. Compound efficacy at a given dose is expressed as percentage mortality and adjusted to remove background mortality observed in control vials containing DMSO only. A dose response series of treated vials is implemented to determine EC50 values.

[3] = test system: adult R. sanguineus ticks; assay: Contact activity against adult Rhipicephalus sanguineus (coated vial); assay type: in vivo; conditions: mortality at 48 hours post-treatment, 24° C., 95% relative humidity, read-out: EC50 (contact activity, percentage mortality)
Method: Screening Method to Test Contact Activity of Compounds of Formula (I), (Ia) or (Ib) Against Adult Rhipicephalus Sanguineus Compounds of formula (I), (Ia) and (Tb) formulated in 100% DMSO are diluted in a solution containing acetone and Triton X-100 (0.02%). The resulting formulation is used to coat the inner walls of glass scintillation vials and the filter paper covering the cap of the vial. Once dried, ten adult R. sanguineus ticks are added to the vials. The vials are incubated at 24° C., 95% relative humidity, and 12 hours of light/12 hours of dark until evaluation. Ticks are visually evaluated for mortality at 48 hours post-treatment. Compound efficacy at a given dose is expressed as percentage mortality. A dose response series is implemented to determine EC50 values.

[4] = test system: 2nd-instar larvae of Spodoptera litura; assay: whole plant or invertebrate; conditions: in Brassica oleracea, foliar, 192 h, read-out: activity level (corrected mortality rate)

Row | Compound | EC50 (adult C. felis fleas) | mortality at 50 ppm [1] | mortality at 50 ppm (Plutella xylostella) | EC50 [2] | EC50 [3] | mortality at 50 ppm [4]
1 | CCS(=O)(=O)c1cc(-c2nnnn2C)cnc1-c1nc2cc(C(F)(F)C(F)(F)F)nnc2n1C [Compound 4] | < 10 µM | 100% | – | – | – | –
2 | CCn1nnnc1-c1cnc(-c2nc3cc(C(F)(F)C(F)(F)F)nnc3n2C)c(S(=O)(=O)CC)c1 [Compound 6] | < 10 µM | – | – | – | – | –
3 | CCS(=O)(=O)c1cc(-c2nnnn2-c2ccccc2)cnc1-c1nc2cc(C(F)(F)C(F)(F)F)nnc2n1C [Compound 16] | – | – | 100% | – | – | –
4 | CCS(=O)(=O)c1cc(-c2nnnn2C)cnc1-c1nc2cc(C(F)(F)C(F)(F)F)cnc2n1C [Compound 15] | < 10 µM | – | 100% | – | – | –
5 | CCS(=O)(=O)c1cc(-c2nnn(C)n2)cnc1-c1nc2cc(C(F)(F)C(F)(F)F)nnc2n1C [Compound 7, 6-[3-ethylsulfonyl-5-(2-methyltetrazol-5-yl)-2-pyridyl]-7-methyl-3-(1,1,2,2,2-pentafluoroethyl)imidazo[4,5-c]pyridazine] | 10 to 100 µM | – | – | < 10 µM | 10 to 100 µM | –
6 | CCS(=O)(=O)c1cc(-n2nnnc2C2CC2)cnc1-c1nc2cc(C(F)(F)C(F)(F)F)nnc2n1C [Compound 2, 6-[5-(5-cyclopropyltetrazol-1-yl)-3-ethylsulfonyl-2-pyridyl]-7-methyl-3-(1,1,2,2,2-pentafluoroethyl)imidazo[4,5-c]pyridazine] | 10 to 100 µM | – | – | – | – | –
7 | CCS(=O)(=O)c1cc(-n2nnnc2C)cnc1-c1nc2cc(C(F)(F)C(F)(F)F)nnc2n1C [Compound 12] | 10 to 100 µM | – | – | – | – | –
8 | CCS(=O)(=O)c1cc(-c2nnn(C)n2)cnc1-c1ncc(C(=O)NCC(F)(F)F)n1C [Compound 8] | 10 to 100 µM | – | – | – | – | –
9 | CCS(=O)(=O)c1cc(-c2nnnn2C2CC2)cnc1-c1nc2cc(C(F)(F)C(F)(F)F)nnc2n1C [Compound 1, 6-[5-(1-cyclopropyltetrazol-5-yl)-3-ethylsulfonyl-2-pyridyl]-7-methyl-3-(1,1,2,2,2-pentafluoroethyl)imidazo[4,5-c]pyridazine] | < 10 µM | 100% | 100% | – | 10 to 100 µM | –
10 | CCS(=O)(=O)c1cc(-c2nnn(C(C)C)n2)cnc1-c1nc2cc(C(F)(F)C(F)(F)F)nnc2n1C [Compound 10] | – | 100% | 100% | – | < 10 µM | –
11 | CCS(=O)(=O)c1cc(-c2nnn(C)n2)cnc1-c1nc2cc(C(F)(F)C(F)(F)F)cnc2n1C [Compound 14] | < 10 µM | – | 100% | 10 to 100 µM | 10 to 100 µM | 100%
12 | CCS(=O)(=O)c1cc(-c2nnn(C)n2)cnc1-c1nc2cc(S(=O)(=O)C(F)(F)F)nnc2n1C [Compound 9] | < 10 µM | 100% | 100% | – | – | 100%
